In patent publication US11059795B2, “Androgen receptor modulators and methods for their use” (ESSA Pharma, Inc., priority 2018, dated 2021):

Key:
[1] = Microsomal stability assay, rat liver microsomes; format: in vitro ADME; conditions: pH 7.4, read-out: Liver microsome T½ (min) Rat
Procedure: Microsomal stability assay is a widely used in vitro model to characterize the metabolic conversion by phase I enzymes, such as cytochrome P450 (CYP) enzymes. Since metabolism is known to be highly variable in different species, microsomal stability assay is commonly run in multiple species. Metabolic stability of testing compound can be evaluated using human, rat, mouse, or other animal liver or intestine microsomes to predict intrinsic clearance.
The assay was carried out in 96-well microtiter plates at 37° C. Reaction mixtures (25 μL) contained a final concentration of 1 μM test compound, 0.5 mg/mL liver microsomes protein, and 1 mM NADPH and/or 1 mM UDPGA (with alamethicin) in 100 mM potassium phosphate, pH 7.4 buffer with 3 mM MgCl2. The incubation was done with N=1, but duplicate incubation at each time point can be prepared if necessary. At each of the time points (for example, 0, 15, 30, and 60 minutes), 150 μL of quench solution (100% acetonitrile with 0.1% formic acid) with internal standard was transferred to each well. Besides the zero minute controls, mixtures containing the same components except the NADPH can also be prepared as the negative control. Verapamil was included as a positive control to verify assay performance. Plates were sealed, vortexed, and centrifuged at 4° C. for 15 minutes at 4000 rpm. The supernatant is transferred to fresh plates for LC/MS/MS analysis.
Summarized conditions: [Compound]=[…], [LM]=0.5 mg/mL, [NADPH]=1 mM and/or [UDPGA]=1 mM, Buffer=100 mM Potassium Phosphate, pH 7.4 with 3 mM MgCl2, Time=0, 15, 30, and 60 min, and Temperature=37° C.
All samples were analyzed on LC/MS/MS using an AB Sciex API 4000 instrument, coupled to a Shimadzu LC-20AD LC Pump system. Analytical samples were separated using a Waters Atlantis T3 dC18 reverse phase HPLC column (20 mm×2.1 mm) at a flow rate of 0.5 mL/min. The mobile phase consisted of 0.1% formic acid in water (solvent A) and 0.1% formic acid in 100% acetonitrile (solvent B).
The extent of metabolism is calculated as the disappearance of the test compound, compared to the 0-min time incubation. Initial rates are calculated for the compound concentration and used to determine half-life (t½) values and subsequently, the intrinsic clearance (Clint). Clint=(0.693)(1/t½ (min))(g of liver/kg of body weight)(mL incubation/mg of microsomal protein)(45 mg of microsomal protein/g of liver weight)

[2] = Hepatocyte stability assay, mouse hepatocytes; format: in vitro ADME; conditions: cryopreserved hepatocytes; for half-life at 1 μM: read-out: Hepatocytes T½ (min) Mouse; for hepatocyte CLint at 1 μM: mouse, 1 μM compound, 0.5 million cells/mL, 37° C., read-out: MH +/− NADPH: Clint (μL/min/million cells)
How it was run: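 Cryopreserved rat, human or mouse hepatocytes at 0.5 million cells/mL in DMEM with 1 μM compound, 37° C, sampled at 0, 60, 120 and 180 min and quenched with acetonitrile/formic acid. Parent loss vs 0-min by LC/MS/MS gave t½, and Clint = 0.693/t½ × mL incubation/million cells.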

[3] = In vivo pharmacokinetics in plasma after oral gavage (PO) in male CD-1 mice; conditions: for Cmin at 5 mg/kg PO: Table 4; for bioavailability / AUC(0-t) / Cmax / Tmax / half-life: mouse; for half-life: read-out: t½ (converted)
Procedure: The purpose of this study is to determine the pharmacokinetics of the tested compounds in plasma, following oral gavage administration (PO) to male CD-1 mice.
Animal Husbandry: Animals were group housed during acclimation and the study. The animal room environment were controlled (target conditions: temperature 18 to 26° C., relative humidity 30 to 70%, 12 hours artificial light and 12 hours dark). Temperature and relative humidity were monitored daily. Animals were fasted at least 12 hours prior to the administration. All animals had access to Certified Rodent Diet ad libitum 4 hours post dosing.
Dose Formulation: prepared 85-100 uL of a stock solution of representative compounds of the disclosure in DMSO at 50 mM; 1.5% v/v of Tween 80 were added and mixed gently; 95.5% v/v saline was added gently to the organic phase. The solution was mixed slowly by reverse pipetting to get a clear solution.
Dose Administration: the dose formulations were administered via oral gavage per facility SOPs. The dose volume were determined by the animals' body weight collected on the morning of dosing day
Sample Collection: blood collection (about 0.05 mL per time point) was performed from saphenous vein of each animal into polypropylene tubes at each timepoints (0, 0.25, 0.5, 1, 2, 4, 8, 12, and 24 hr). All blood samples were transferred into pre-chilled tubes containing 2 μL of K2-EDTA (0.5M) and placed on wet ice until centrifugation. Each collected blood sample was in the wet-ice before centrifugation. Each collected blood was under centrifugation for 15 minutes at 4° C. and 3000 g for plasma collection. Plasma samples were stored in polypropylene tubes, quickly frozen over dry ice and kept at −70±10° C. until LC/MS/MS analysis.
Bioanalytical analysis: A LC-MS/MS method for the quantitative determination of tested compound in biological matrix were developed under non-GLP compliance. A calibration curve with at least 7 non-zero calibration standards were applied for the method including LLOQ.
Plasma concentration versus time data were analyzed by non-compartmental approaches using the Phoenix WinNonlin 6.3 software program. Cl, Vdss, C0, Cmax, Tmax, T^1/2, AUC(0-t), AUC(0-inf), MRT(0-t), MRT(0-inf), % F (oral availability) and graphs of plasma concentration versus time profile were reported.

[4] = plasma, single PO dose 5 mg/kg, male CD-1 mice, oral availability
[5] = single PO dose 5 mg/kg, male CD-1 mice, plasma

Structure (SMILES)	half-life at 1 μM [1] [min]	half-life at 1 μM [2] [min]	hepatocyte CLint at 1 μM [2] [µL/min/1e6 cells]	Cmin at 5 mg/kg PO [3] [nM]	bioavailability [3, 4] [%]	AUC(0-t) [3, 5] [ng·h/mL]	Cmax [3, 5] [ng/mL]	Tmax [3, 5] [h]	half-life [3, 5] [h]	AUC/D [3, 5] [kg·ng·h/mL/mg]	t½ [3, 5] [h]	F (%) ([3]; single PO dose 5 mg/kg, male CD-1 mice, oral availability)
CC(C)(c1ccc(OCc2ccnc(NS(C)(=O)=O)n2)cc1)c1cc(Cl)c(OCCCl)c(C#N)c1 [Compound A109, N-(4-((4-(2-(3-chloro-4-(2-chloroethoxy)-5-cyanophenyl)propan-2-yl)phenoxy)methyl)pyrimidin-2-yl)methanesulfonamide]	> 120	> 360	< 4	680	33.6	30700	2670	2.2	8.1	6143.0		
CC(C)(c1ccc(OCc2ocnc2S(C)(=O)=O)cc1)c1cc(Cl)c(OCCCl)c(C#N)c1 [Compound A28, 3-chloro-2-(2-chloroethoxy)-5-(2-(4-((4-(methylsulfonyl)oxazol-5-yl)methoxy)phenyl)propan-2-yl)benzonitrile]	23	86	4 to 18		50.3	8430	2010	0.5	2.8	1685.1		
CC(C)(c1ccc(OCc2nc(S(C)(=O)=O)cs2)cc1)c1cc(Cl)c(OCCCl)c(C#N)c1 [Compound A136, 3-Chloro-2-(2-chloroethoxy)-5-(2-(4-((4-(methylsulfonyl)thiazol-2-yl)methoxy)phenyl)propan-2-yl)benzonitrile]			4 to 18		14	42000	3430	1.5	10.2	8407.6		
CC(C)(c1ccc(OCc2coc(NS(C)(=O)=O)n2)cc1)c1cc(Cl)c(OCCCl)c(Cl)c1 [Compound A38, N-(4-((4-(2-(3,5-dichloro-4-(2-chloroethoxy)phenyl)propan-2-yl)phenoxy)methyl)oxazol-2-yl)methanesulfonamide]	12	> 360	< 4		86.4	12800	1270	3.3	4.9	2561.0		
CCS(=O)(=O)Nc1nc(COc2ccc(C(C)(C)c3cc(Cl)c(OCCCl)c(C#N)c3)cc2)co1 [Compound A126]			< 4		86	24500	3110	1.3	4.7	4909.4		
CC(C)(c1ccc(OCc2ocnc2S(C)(=O)=O)cc1)c1cc(Cl)c(OCCCl)c(Cl)c1 [Compound A13, 5-((4-(2-(3,5-dichloro-4-(2-chloroethoxy)phenyl)propan-2-yl)phenoxy)methyl)-4-(methylsulfonyl)oxazole]	64	203	4 to 18	230	85.8	8310	1140	1	8.3	1661.9		
CC(C)(c1ccc(OC[C@H](O)CNS(C)(=O)=O)cc1)c1cc(Cl)c(OC[C@H](O)CCl)c(Cl)c1 [X, reference compound]		33										
CC(C)(c1ccc(OCc2ncc(S(C)(=O)=O)s2)cc1)c1cc(Cl)c(OCCCl)c(C#N)c1 [Compound A93, 3-chloro-2-(2-chloroethoxy)-5-(2-(4-((5-(methylsulfonyl)thiazol-2-yl)methoxy)phenyl)propan-2-yl)benzonitrile]	83	> 360	< 4		62.8	32900	2970	0.8	17.1	6575.7		
CCS(=O)(=O)Nc1nccc(COc2ccc(C(C)(C)c3cc(Cl)c(OCCCl)c(C#N)c3)cc2)n1 [Compound A131]			< 4		81	76000	7050	1.3	5	15209.4		
CC(C)(c1ccc(OCc2ccnc(NS(C)(=O)=O)n2)cc1)c1cc(Cl)c(OCCCl)c(Cl)c1 [Compound A74, N-(4-((4-(2-(3,5-dichloro-4-(2-chloroethoxy)phenyl)propan-2-yl)phenoxy)methyl)pyrimidin-2-yl)methanesulfonamide]	> 120			2420		72700	6310	2.7		14542.3	12.5	71.9
C[C@H](Oc1ccc(C(C)(C)c2cc(Cl)c(OCCCl)c(C#N)c2)cc1)c1ccnc(NS(C)(=O)=O)n1 (single isomer, unassigned) [Compound A170]			< 4		150	80000	8500	3	3	16007.6		
Cc1cnc(NS(C)(=O)=O)nc1COc1ccc(C(C)(C)c2cc(Cl)c(OCCCl)c(C#N)c2)cc1 [Compound A122, N-(4-((4-(2-(3-Chloro-4-(2-chloroethoxy)-5-cyanophenyl)propan-2-yl)phenoxy)methyl)-5-methylpyrimidin-2-yl)methanesulfonamide]			4 to 18		92.4	6800	4080	0.5	1.1	1360.0		
